{
  "source": "patent US4051237A",
  "about": "“Glycopeptide antibiotics Bu-2231 A and B and process for producing same” (priority 1975, dated 1977)",
  "key": {"[1]": {"tested_on": "E. coli Juhl A15119", "assay": "MIC by two-fold agar dilution", "assay_type": "cell-based", "details": "Mueller-Hinton agar, unit assumed"}, "[2]": {"tested_on": "E. coli A20683", "assay": "MIC by two-fold agar dilution", "assay_type": "cell-based", "details": "Mueller-Hinton agar, unit assumed"}, "[3]": {"tested_on": "E. cloacae A21006", "assay": "MIC by two-fold agar dilution", "assay_type": "cell-based", "details": "Mueller-Hinton agar, unit assumed"}, "[4]": {"tested_on": "K. pneumoniae D11", "assay": "MIC by two-fold agar dilution", "assay_type": "cell-based", "details": "Mueller-Hinton agar, unit assumed"}, "[5]": {"tested_on": "K. pneumoniae A9678", "assay": "MIC by two-fold agar dilution", "assay_type": "cell-based", "details": "Mueller-Hinton agar, unit assumed"}, "[6]": {"tested_on": "P morganii A9553", "assay": "MIC by two-fold agar dilution", "assay_type": "cell-based", "details": "Mueller-Hinton agar, unit assumed"}, "[7]": {"tested_on": "P. mirabilis A9554", "assay": "MIC by two-fold agar dilution", "assay_type": "cell-based", "details": "Mueller-Hinton agar, unit assumed"}, "[8]": {"tested_on": "P. stuartii A20894", "assay": "MIC by two-fold agar dilution", "assay_type": "cell-based", "details": "Mueller-Hinton agar, unit assumed"}, "[9]": {"tested_on": "P. stuartii A20734", "assay": "MIC by two-fold agar dilution", "assay_type": "cell-based", "details": "Mueller-Hinton agar, unit assumed"}, "[10]": {"tested_on": "S. marcescens A20019", "assay": "MIC by two-fold agar dilution", "assay_type": "cell-based", "details": "Mueller-Hinton agar, unit assumed"}, "[11]": {"tested_on": "S. marcescens A20460", "assay": "MIC by two-fold agar dilution", "assay_type": "cell-based", "details": "Mueller-Hinton agar, unit assumed"}, "[12]": {"tested_on": "P. aeruginosa H9, D113", "assay": "MIC by two-fold agar dilution", "assay_type": "cell-based", "details": "Mueller-Hinton agar, unit assumed"}, "[13]": {"tested_on": "P. aeruginosa A20741", "assay": "MIC by two-fold agar dilution", "assay_type": "cell-based", "details": "Mueller-Hinton agar, unit assumed"}, "[14]": {"tested_on": "S. aureus 209P", "assay": "MIC by two-fold agar dilution", "assay_type": "cell-based", "details": "Mueller-Hinton agar, unit assumed"}, "[15]": {"tested_on": "S. aureus Smith A9537", "assay": "MIC by two-fold agar dilution", "assay_type": "cell-based", "details": "Mueller-Hinton agar, unit assumed"}, "[16]": {"tested_on": "S. aureus 209P, R4", "assay": "MIC by two-fold agar dilution", "assay_type": "cell-based", "details": "Mueller-Hinton agar, unit assumed", "protocol": "The minimum inhibitory concentrations (MIC) of Bu-2231 A and B were determined against a wide variety of bacteria and fungi by the two-fold agar dilution method. Mueller-Hinton agar medium was used for the determination of bacterial MIC's (gram-positive and gram-negative), Medium #1001 [Glycerol (3%). Na-glutamate (0.3%), peptone (0.2%), Na2 HPO4 (0.31%), KH2 PO4 (0.1%), ammonium citrate (0.005%), MgSO4.7H2 O (0.001%), agar (1.5%)] for acid-fast bacteria and sabouraud agar for fungi. The results are shown in Tables 9 and 10 comparatively with bleomycin and phleomycin. The antibacterial and antifungal activities of Bu-2231 A and B are much higher than those of the reference antibiotics."}, "[17]": {"tested_on": "S. aureus A20239", "assay": "MIC by two-fold agar dilution", "assay_type": "cell-based", "details": "Mueller-Hinton agar, unit assumed"}, "[18]": {"tested_on": "S. lutea PCI-1001", "assay": "MIC by two-fold agar dilution", "assay_type": "cell-based", "details": "Mueller-Hinton agar, unit assumed"}, "[19]": {"tested_on": "B. cereus ATCC 10702A", "assay": "MIC by two-fold agar dilution", "assay_type": "cell-based", "details": "Mueller-Hinton agar, unit assumed"}, "[20]": {"tested_on": "B. anthracis 115", "assay_type": "cell-based", "details": "Mueller-Hinton agar, unit assumed"}, "[21]": {"tested_on": "Mycobacterium 607, D46", "assay": "MIC by two-fold agar dilution", "assay_type": "cell-based", "details": "Medium #1001, unit assumed"}, "[22]": {"tested_on": "Mycobacterium phlei, D88", "assay": "MIC by two-fold agar dilution", "assay_type": "cell-based", "details": "Medium #1001, unit assumed"}, "[23]": {"tested_on": "Mycobacterium ranae, ATCC110", "assay": "MIC by two-fold agar dilution", "assay_type": "cell-based", "details": "Medium #1001, unit assumed"}, "[24]": {"tested_on": "C. albicans Nystatin-R", "assay": "MIC by two-fold agar dilution", "assay_type": "cell-based", "details": "Ca-2 C. albicans Nystatin-R; sabouraud agar; unit assumed"}, "[25]": {"tested_on": "C. albicans #520 Yale A9540", "assay": "MIC by two-fold agar dilution", "assay_type": "cell-based", "details": "Ca-4 C. albicans #520 Yale A9540; sabouraud agar; unit assumed"}, "[26]": {"tested_on": "C. tropicalis IAM 4157", "assay": "MIC by two-fold agar dilution", "assay_type": "cell-based", "details": "Ct-1 C. tropicalis IAM 4157; sabouraud agar; unit assumed"}, "[27]": {"tested_on": "C. tropicalis #125 A15051", "assay": "MIC by two-fold agar dilution", "assay_type": "cell-based", "details": "Ct-4 C. tropicalis #125 A15051; sabouraud agar; unit assumed"}, "[28]": {"tested_on": "C. neoformans (Cn-1)", "assay": "MIC by two-fold agar dilution", "assay_type": "cell-based", "details": "Cn-1 C. neoformans; sabouraud agar; unit assumed"}, "[29]": {"tested_on": "Verticillium sp.", "assay": "MIC by two-fold agar dilution", "assay_type": "cell-based", "details": "Vx-1 Verticillium sp.; sabouraud agar; unit assumed"}, "[30]": {"tested_on": "Mucor sp.", "assay": "MIC by two-fold agar dilution", "assay_type": "cell-based", "details": "My-1 Mucor sp.; sabouraud agar; unit assumed"}, "[31]": {"tested_on": "P. citrinum IAM 7008", "assay": "MIC by two-fold agar dilution", "assay_type": "cell-based", "details": "Pt-1 P. citrinum IAM 7008; sabouraud agar; unit assumed"}, "[32]": {"details": "mice, single subcutaneous injection, 16 days", "protocol": "The acute toxicity of copper-free Bu-2231 A and B was determined in mice by a single subcutaneous injection. Groups of 3 mice were used for each dose level and the body weight was recorded for 16 days."}},
  "data": [
    {"smiles": "Cc1c(N)nc([C@H](CC(N)=O)NC[C@H](N)C(N)=O)nc1C(=O)N[C@H](C(=O)N[C@H](C)[C@@H](O)CC(=O)N[C@H](C(=O)NC(O[C@@H]1O[C@@H](C)[C@@H](N)[C@@H](O)[C@H]1O)C(O)c1nc(-c2nc(C(=O)NCCCC(N)CC(=O)NCCCNCCCCN)cs2)cs1)[C@@H](C)O)[C@H](O[C@@H]1O[C@@H](CO)[C@@H](O)[C@H](O)[C@@H]1O[C@H]1O[C@H](CO)[C@@H](O)[C@H](OC(N)=O)[C@@H]1O)c1c[nH]cn1", "note": "(some centres unmarked) [Bu-2231 A Cu-free]", "values": [
      {"measurement": "MIC", "setting": "[1]", "value": 0.1, "unit": "µg/mL"},
      {"measurement": "MIC", "setting": "[2]", "value": 6.3, "unit": "µg/mL"},
      {"measurement": "MIC", "setting": "[3]", "value": 1.6, "unit": "µg/mL"},
      {"measurement": "MIC", "setting": "[4]", "value": "< 0.0063", "unit": "µg/mL"},
      {"measurement": "MIC", "setting": "[5]", "value": 0.2, "unit": "µg/mL"},
      {"measurement": "MIC", "setting": "[6]", "value": 0.4, "unit": "µg/mL"},
      {"measurement": "MIC", "setting": "[7]", "value": 0.1, "unit": "µg/mL"},
      {"measurement": "MIC", "setting": "[8]", "value": 0.4, "unit": "µg/mL"},
      {"measurement": "MIC", "setting": "[9]", "value": 0.4, "unit": "µg/mL"},
      {"measurement": "MIC", "setting": "[10]", "value": 0.4, "unit": "µg/mL"},
      {"measurement": "MIC", "setting": "[11]", "value": 0.4, "unit": "µg/mL"},
      {"measurement": "MIC", "setting": "[12]", "value": "> 100", "unit": "µg/mL"},
      {"measurement": "MIC", "setting": "[13]", "value": 0.2, "unit": "µg/mL"},
      {"measurement": "MIC", "setting": "[14]", "value": 0.1, "unit": "µg/mL"},
      {"measurement": "MIC", "setting": "[15]", "value": 0.1, "unit": "µg/mL"},
      {"measurement": "MIC", "setting": "[16]", "value": 0.4, "unit": "µg/mL"},
      {"measurement": "MIC", "setting": "[17]", "value": 0.2, "unit": "µg/mL"},
      {"measurement": "MIC", "setting": "[18]", "value": 0.2, "unit": "µg/mL"},
      {"measurement": "MIC", "setting": "[19]", "value": 0.2, "unit": "µg/mL"},
      {"measurement": "MIC", "setting": "[20]", "value": 0.05, "unit": "µg/mL"},
      {"measurement": "MIC", "setting": "[21]", "value": 0.1, "unit": "µg/mL"},
      {"measurement": "MIC", "setting": "[22]", "value": 0.05, "unit": "µg/mL"},
      {"measurement": "MIC", "setting": "[23]", "value": 0.1, "unit": "µg/mL"},
      {"measurement": "MIC", "setting": "[24]", "value": 0.8, "unit": "µg/mL"},
      {"measurement": "MIC", "setting": "[25]", "value": 3.1, "unit": "µg/mL"},
      {"measurement": "MIC", "setting": "[26]", "value": 0.8, "unit": "µg/mL"},
      {"measurement": "MIC", "setting": "[27]", "value": 0.8, "unit": "µg/mL"},
      {"measurement": "MIC", "setting": "[28]", "value": 0.4, "unit": "µg/mL"},
      {"measurement": "MIC", "setting": "[29]", "value": 3.1, "unit": "µg/mL"},
      {"measurement": "MIC", "setting": "[30]", "value": 6.3, "unit": "µg/mL"},
      {"measurement": "MIC", "setting": "[31]", "value": 1.6, "unit": "µg/mL"},
      {"measurement": "LD50", "setting": "[32]", "value": 28, "unit": "mg/kg"}
    ]}
  ]
}
